Results: patent US20150018369A1 (priority 2012, published 2015)
Read-outs that look alike come from different tables or passages of the source.

Experiments:
T98 g cells = assay: Cell viability assay (WST-1), SAR of AI compounds at inducing cell death; type: cell-based, human; conditions: for EC50: Homo sapiens, T98G, 72 h
Experimental: Cells were plated media supplemented with 10% serum in 96-well plates (10^4 cells per wellI; 0.1 ml per well). Once they reached ˜70% confluence, they were rinsed with PBS and kept for an additional 24 his in media supplemented with 1% serum, at which time drugs or vehicle (DMSO, 0.1%, prepared in 10 μl serum-free media) were directly added to each well. After 3 days, cell viability was assessed using the Cell Proliferation Reagent WST-1 (Roche, Indianapolis, Ind.). Briefly, WST-1 reagent (10 μl) was added to each well for 3 hrs at 37° C. with 5% CO2 and WST-1 products were read at 450 nm using Packard SpectraCount™.
Because the strongest toxic effect of WIN55212-2 (ST-1) was measured in T98 g cells, these cells are used as readout to study the structure activity relationship (SAR) of AI compounds at inducing cell death. Table 2 provides the chemical structure, potency and efficacy of several AI compounds.

CB2 = CB2 (Homo sapiens, UniProt P34972); assay: HA-tagged receptor internalization, CB2; type: cell-based; set-up: HA; expressed in transfected cells; conditions: FIG. 2b
Sequence of CB2 (P34972 whole entry): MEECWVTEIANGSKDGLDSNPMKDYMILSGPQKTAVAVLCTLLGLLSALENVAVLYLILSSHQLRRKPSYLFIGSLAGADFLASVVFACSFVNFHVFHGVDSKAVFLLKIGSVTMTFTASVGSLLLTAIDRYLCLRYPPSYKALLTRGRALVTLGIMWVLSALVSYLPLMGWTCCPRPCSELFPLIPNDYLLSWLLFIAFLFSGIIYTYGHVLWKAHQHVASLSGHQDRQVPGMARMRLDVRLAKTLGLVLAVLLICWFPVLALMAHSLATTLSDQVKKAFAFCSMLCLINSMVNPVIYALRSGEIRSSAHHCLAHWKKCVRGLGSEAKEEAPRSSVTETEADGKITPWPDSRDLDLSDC
Text: (§1) FIGS. 2d and 2e illustrate the co-docking of CP55940 and either WIN55212-2 (d) or ST-11 (e) in hCB1 receptors.

human CB1 receptors = target: T1, human CB1 receptors (Homo sapiens, UniProt P21554); assay: HA-tagged receptor internalization, CB1; type: cell-based; conditions: FIG. 2a
T1 construct: HA; expressed in transfected cells
T1 sequence (P21554 whole entry): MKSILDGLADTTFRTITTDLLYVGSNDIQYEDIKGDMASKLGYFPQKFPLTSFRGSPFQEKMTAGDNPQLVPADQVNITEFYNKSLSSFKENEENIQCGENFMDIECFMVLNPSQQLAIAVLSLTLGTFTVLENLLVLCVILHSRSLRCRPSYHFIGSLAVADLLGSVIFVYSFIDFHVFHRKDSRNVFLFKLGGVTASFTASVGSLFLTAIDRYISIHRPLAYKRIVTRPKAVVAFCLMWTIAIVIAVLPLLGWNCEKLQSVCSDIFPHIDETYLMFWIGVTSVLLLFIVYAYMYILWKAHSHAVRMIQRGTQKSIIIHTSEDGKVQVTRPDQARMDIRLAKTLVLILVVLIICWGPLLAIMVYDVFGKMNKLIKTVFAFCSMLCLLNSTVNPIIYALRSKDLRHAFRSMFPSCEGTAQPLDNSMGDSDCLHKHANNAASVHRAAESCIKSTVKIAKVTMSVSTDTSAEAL
Text: as §1

AI receptors = assay: GTPγS binding in HEK293 cell homogenates; type: biochemical, human
Text: When comparing the overall amino acid sequence of GPR124 to that of CB1 and CB2 receptors no significant homology was found. However, when focusing the comparison to the amino acid sequence encoding for the third transmembrane domains of GPR124 and CB2 receptors, 84% homology was found (FIG. 5a). […] Therefore, it is likely that ST-1, ST-11, and other AI compounds interact directly with the third transmembrane domain of GPR124. To determine the signaling mechanism of AI receptors, effect of ST-11 in HEX293 cells, which express GPR124 endogenously and commonly used to study GPCR pharmacology and signaling pathway, was tested.

[1] = T98 g cells, cell death, viability after 3 days
[2] = T98 g cells, cell death, viability after 3 days, read-out: EC50

O=C(c1ccccc1)c1cn(CC(=O)N2CCOCC2)c2ccccc12 [ST-46]
EC50 (μM) (T98 g cells; [1]): inactive

COCCn1cc(C(=O)N2CCCC(CN(C)C)C2)c2ccccc21 (centres unmarked) [ST-9]
EC50 (μM) (T98 g cells; [1]): inactive

CC1=C(CCN2C(=O)COc3ccccc32)c2ccccc2C1C (centres unmarked) [ST-4]
EC50 (μM) (T98 g cells; [1]): inactive

Cc1ccc(C(=O)c2c(C)n(CCN3CCOCC3)c3ccccc23)c2ccccc12 [ST-48]
cross-activation of human CB2 receptors (receptor internalization) (CB2): engage CB2 receptors
cross-activation of human CB1 receptors (receptor internalization) (human CB1 receptors): engage CB1 receptors
EC50 (T98 g cells): 6700 nM

Cn1cc(C(=O)N2CCCc3ccccc32)c2ccccc21 [ST-40]
EC50 (μM) (T98 g cells; [1]): inactive

CC(=O)c1c(C)n(CCOc2ccccc2)c2ccccc12 [ST-2]
EC50 (T98 g cells): 21000 nM

O=C1CCCc2c1c1ccccc1n2Cc1ccccc1 [ST-7]
EC50 (μM) (T98 g cells; [1]): inactive

CCn1c2ccccc2c2cc(C(=O)N3CCCc4ccccc43)ccc21 [ST-53, (9-ethyl-carbazol-3-yl)(1,2,3,4-tetrahydraquinoline)methanone]
EC50 (T98 g cells; [2]): 516 nM

Cc1ccc(C(=O)c2c(C)n(CCN3CCOCC3)c3ncccc23)c2ccccc12 [ST-23]
GTPγS binding (AI receptors): increase GTP[…]S binding
cross-activation of human CB1 receptors (receptor internalization) (human CB1 receptors): engage CB1 receptors
EC50 (T98 g cells): 3500 nM

O=C(c1cccc2ccccc12)c1cn(CCN2CCOCC2)c2ccccc12 [ST-20]
EC50 (T98 g cells): 23000 nM

Cc1c(C(=O)C(F)(F)F)c2ccccc2n1CC(=O)NCc1ccccc1 [ST-6]
EC50 (μM) (T98 g cells; [1]): inactive

COc1ccc(C(=O)c2c(C)n(CCN3CCOCC3)c3ccccc23)cc1 [ST-17]
EC50 (T98 g cells): 24000 nM

CCCn1c(C)c(C(=O)c2cccc3ccccc23)c2ccccc21 [ST-15]
EC50 (T98 g cells): 1500 nM

Cc1ccc(C(=O)c2c3n(c4ccccc24)CCCC3)c2ccccc12 [ST-25]
GTPγS binding (AI receptors): increase GTP[…]S binding
EC50 (T98 g cells): 634 nM

Cc1ccc(C(=O)c2c(C)n(CCN3CCOCC3)c3cnccc23)c2ccccc12 [ST-31]
EC50 (T98 g cells): 20000 nM

Cc1ccc(C(=O)c2c(C)n(C)c3ccccc23)c2ccccc12 [ST-10]
EC50 (T98 g cells): 2900 nM

COc1ccc2c(C(=O)c3ccc(C)c4ccccc34)c(C)n(CCN3CCOCC3)c2c1 [ST-26]
EC50 (T98 g cells): 2500 nM

CCCn1c(C)c(C(=O)c2ccc(C)c3ccccc23)c2ccccc21 [ST-18]
EC50 (T98 g cells): 1900 nM

CCCCCn1c2c(c3ccc(OC)cc31)CN(C(=O)c1ccccc1)CC2 [ST-35]
EC50 (T98 g cells; [2]): ~30000 nM

CC(=O)c1c(C)n(CCOc2cccc3ccccc23)c2ccccc12 [ST-45]
EC50 (T98 g cells): 30000 nM

COc1ccc2c(c1)c(C(O)N1CCCC(c3nnc4ccccn34)C1)c(C)n2C (centres unmarked) [ST-42]
EC50 (μM) (T98 g cells; [1]): inactive

Cc1nccn1CC1CCc2c(c3ccccc3n2C)C1=O (centres unmarked) [ST-3]
EC50 (μM) (T98 g cells; [1]): inactive

Cc1ccc(C(=O)c2c(C)n(CCN3CCOCC3)c3cc(Cl)ccc23)c2ccccc12 [ST-24]
EC50 (T98 g cells): 1400 nM

CC(=O)c1c(C)n(CCCOc2ccccc2)c2ccccc12 [ST-44]
EC50 (T98 g cells): > 20000 nM

Cc1ccc(C(=O)c2c(C)n(CCN3CCOCC3)c3cc(Cl)cc(Cl)c23)c2ccccc12 [ST-27]
EC50 (T98 g cells): 409 nM

Cc1ccc(C(=O)c2c(C)n(C3CC3)c3ccccc23)c2ccccc12 [ST-30]
EC50 (T98 g cells): 1000 nM

Cc1ccc(C(=O)c2c(C(F)(F)F)n(CCN3CCOCC3)c3ccccc23)c2ccccc12 [ST-28]
EC50 (T98 g cells): 2700 nM
